Experimental data from patent publication US20230391772A1, “METHODS AND COMPOSITIONS FOR TARGETED PROTEIN DEGRADATION” (Ranok Therapeutics (Hangzhou) Co. Ltd., priority 2020, published 2023).

Columns and labels:
[1] = molecular target: T1, KRAS(G12C) (Homo sapiens, UniProt P01116, G12C); experiment: KRAS(G12C)/SOS1 homogeneous time-resolved fluorescence (HTRF) assay; parameters: purchased Cisbio 63ADK000CB16PEG; conditions: absence of GTP, 4° C. for 3 hr, read-out: KRAS (G12C) binding
Method in brief: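 HTRF kit measuring compound-induced block of KRAS(G12C)-SOS1 interaction without GTP. Compounds tested as 3-fold serial dilutions down to 1.02 nM, incubated with reaction components 3 h at 4 °C in sealed plates before fluorescence read.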

[2] = molecular target: T1, KRAS(G12C); experiment: KRAS(G12C) Western blot protein degradation assay in LU65A cells; type: cell-based; parameters: LU65A human lung cancer cell line, which expresses KRAS(G12C); host or cells: LU65A; conditions: 6 hr
Experimental: The following cancer cell lines were employed: BT-474 human breast carcinoma (ATCC, #HTB-20); MIA PaCa-2 human pancreatic carcinoma [2 copies KRAS(G12C)](ATCC, #CRL-1420); NCI-H23 human non-small cell lung cancer [1 copy KRAS(G12C)](ATCC, #CRL-5800); NCI-H358 human non-small cell lung cancer [1 copy KRAS(G12C)](ATCC, #CRL-5807); LU65A human lung carcinoma (Pharmaron, Beijing, China). Cell lines were cultured essentially according to ATCC and Pharmaron recommendations.
KRAS(G12C) Western Blot Protein Degradation Assay
The MIA PaCa-2 human pancreatic carcinoma cell line and LU65A human lung cancer cell line, which expresses KRAS(G12C), were seeded in 6- or 12-well tissue culture plates, and after 1 hr, test compounds were added at various concentrations and incubated at 37° C./5% CO2 for 48 hr (MIA Paca-2) and 6 hr (LU65A) respectively. Cells were then washed with cold PBS, aspirated and cold RIPA buffer containing a protease/phosphatase inhibitor cocktail was added to lyse cells. After centrifugation, the total protein concentrations of cell lysates were determined using the BCA protein assay. Samples were normalized for equivalent protein concentrations, 5×SDS-PAGE loading buffer added and denatured at 100° C. for 10 min. 20 μl of each sample/well was loaded on a SDS-PAGE gel and electrophoresed for 20 min at 80 V, then 120 V for 1.5 hr. Gels were then electroblotted to nitrocellulose membranes using a wet-transfer method at 250 mA for 2.5 hr. Membranes were incubated with blocking buffer for 1 hr and washed 3 times with TBST for 5 min. Membranes were then incubated with anti-KRAS (Sigma-Aldrich, #SAB1404011) and anti-β-Actin monoclonal antibodies (Cell Signaling Technology, #3700) diluted in blocking buffer at 4° C. overnight per the manufacturer's recommendations. After washing 3 times, blots were incubated with appropriately labeled secondary antibodies for 1 hr at room temperature and washed again. Fluorescence imaging and quantitation was performed using a LI-COR Odyssey. Results was analyzed using GraphPad Prism 7 software. Compound degradation of was determined by the following equation and DC50 values (the concentration at which 50% of the maximal degradation of KRAS occurs) calculated using GraphPad Prism 7 software:
% Inhibition=100−(D−B)/(S−B)*100%. • S: Fluorescence intensity of cells with antibody • D: Fluorescence intensity of compound-treated cells with antibody • B: Fluorescence intensity of cells without antibody

[3] = tested on: MIA PaCa-2 human pancreatic carcinoma; experiment: MIA PaCa-2 CCK-8 proliferation assay; type: cell-based; conditions: MIA PaCa-2 cells
Method in brief: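 MIA PaCa-2 (2 copies KRAS(G12C)), NCI-H358 and NCI-H23 (1 copy KRAS(G12C) each) were exposed to compound in 3-fold serial dilutions from 20 μM to 1.02 nM. Viability was read as CCK-8 absorbance, and % inhibition was computed against DMSO-treated cells, with cell-free DMSO medium as blank.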

Molecule	IC50 [1] [nM]	DC50 [2] [nM]	EC50 ([3]; Homo sapiens, MIA PaCa-2, 72 h) [nM]	EC50 ([3]; 72 hr) [nM]
C=CC(=O)N1CCN(c2nc(OCCN3CCC(N4CCN(Cc5ccc(-n6c(O)nnc6-c6cc(C)c(O)cc6O)cc5)CC4)CC3)nc3c2CCN(c2cccc4cccc(Cl)c24)C3)C[C@@H]1CC#N [Compound 236, (S)-2-(1-acryloyl-4-(7-(8-chloronaphthalen-1-yl)-2-(2-(4-(4-(4-(3-(2,4-dihydroxy-5-methylphenyl)-5-hydroxy-4H-1,2,4-triazol-4-yl)benzyl)piperazin-1-yl)piperidin-1-yl)ethoxy)-5,6,7,8-tetrahydropyrido[3,4-d]pyrimidin-4-yl)piperazin-2-yl)acetonitrile]	< 100	> 1000	> 1000	–
C=C(F)C(=O)N1CCN(c2nc(OC[C@@H]3CC[C@H](CN4CCN(Cc5ccc(-n6c(C(=O)NCC)nnc6-c6cc(C(C)C)c(O)cc6O)cc5)CC4)N3C)nc3c2CCN(c2cccc4ccccc24)C3)C[C@@H]1CC#N [Compound 287, 4-{4-[(4-{[(2R,5S)-5-[({4-[(3S)-3-(cyanomethyl)-4-(2-fluoroprop-2-enoyl)piperazin-1-yl]-7-(naphthalen-1-yl)-5H,6H,8H-pyrido[3,4-d]pyrimidin-2-yl}oxy)methyl]-1-methylpyrrolidin-2-yl]methyl}piperazin-1-yl)methyl]phenyl}-5-(2,4-dihydroxy-5-isopropylphenyl)-N-ethyl-1,2,4-triazole-3-carboxamide]	100 to 1000	> 1000	< 100	–
C=CC(=O)N1CCN(c2nc(OC[C@@H]3CC[C@H](CN4CCN(C(=O)C5CCN(Cc6ccc(-n7c(C(=O)NCC)nnc7-c7cc(C(C)C)c(O)cc7O)cc6)CC5)CC4)N3C)nc3c2CCN(c2cccc4cccc(C)c24)C3)C[C@@H]1CC#N [Compound 274, 4-(4-{[4-(4-{[(2R,5S)-5-[({4-[(3S)-3-(cyanomethyl)-4-(prop-2-enoyl)piperazin-1-yl]-7-(8-methylnaphthalen-1-yl)-5H,6H,8H-pyrido[3,4-d]pyrimidin-2-yl}oxy)methyl]-1-methylpyrrolidin-2-yl]methyl}piperazine-1-carbonyl)piperidin-1-yl]methyl}phenyl)-5-(2,4-dihydroxy-5-isopropylphenyl)-N-ethyl-1,2,4-triazole-3-carboxamide]	< 100	> 1000	100 to 1000	–
C=CC(=O)N1CCN(c2nc(OCCN3CCC(C(=O)N4CCN(Cc5ccc(-n6c(C(=O)NCC(F)(F)F)nnc6-c6cc(C)c(O)cc6O)cc5)CC4)CC3)nc3c2CCN(c2cccc4cccc(Cl)c24)C3)C[C@@H]1CC#N [Compound 251, (S)-4-(4-((4-(1-(2-((4-(4-acryloyl-3-(cyanomethyl)piperazin-1-yl)-7-(8-chloronaphthalen-1-yl)-5,6,7,8-tetrahydropyrido[3,4-d]pyrimidin-2-yl)oxy)ethyl)piperidine-4-carbonyl)piperazin-1-yl)methyl)phenyl)-5-(2,4-dihydroxy-5-methylphenyl)-N-(2,2,2-trifluoroethyl)-4H-1,2,4-triazole-3-carboxamide]	< 100	> 1000	–	100 to 1000
C=CC(=O)N1CCN(c2nc(OC[C@@H]3C[C@H](N4CCN(Cc5ccc(-n6c(O)nnc6-c6cc(C)c(O)cc6O)cc5)CC4)CN3C)nc3c2CCN(c2cccc4cccc(Cl)c24)C3)C[C@@H]1CC#N [Compound 252, 2-[(2S)-4-[7-(8-chloronaphthalen-1-yl)-2-{[(2S,4S)-4-[4-({4-[3-(2,4-dihydroxy-5-methylphenyl)-5-hydroxy-1,2,4-triazol-4-yl]phenyl}methyl)piperazin-1-yl]-1-methylpyrrolidin-2-yl]methoxy}-5H,6H,8H-pyrido[3,4-d]pyrimidin-4-yl]-1-(prop-2-enoyl)piperazin-2-yl]acetonitrile]	< 100	> 1000	> 1000	–
(S)-4-(4-((4-(1-(2-((4-(4-acryloyl-3-(cyanomethyl)piperazin-1-yl)-7-(8-chloronaphthalen-1-yl)-5,6,7,8-tetrahydropyrido[3,4-d]pyrimidin-2-yl)oxy)ethyl)piperidine-4-carbonyl)piperazin-1-yl)methyl)phenyl)-5-(2,4-dihydroxy-5-methylphenyl)-N-(2,2,2-trifluoroethyl)-4H-1,2,4-triazole-3-carboxamide [Compound 257]	< 100	100 to 1000	–	100 to 1000
C=CC(=O)N1CCN(c2nc(OC[C@@H]3C[C@H](N4CCN(C(=O)C5CCN(Cc6ccc(-n7c(O)nnc7-c7cc(C)c(O)cc7O)cc6)CC5)CC4)CN3C)nc3c2CCN(c2cccc4cccc(Cl)c24)C3)C[C@@H]1CC#N [Compound 265, 2-[(2S)-4-[7-(8-chloronaphthalen-1-yl)-2-{[(2S,4S)-4-{4-[1-({4-[3-(2,4-dihydroxy-5-methylphenyl)-5-hydroxy-1,2,4-triazol-4-yl]phenyl}methyl)piperidine-4-carbonyl]piperazin-1-yl}-1-methylpyrrolidin-2-yl]methoxy}-5H,6H,8H-pyrido[3,4-d]pyrimidin-4-yl]-1-(prop-2-enoyl)piperazin-2-yl]acetonitrile]	< 100	> 1000	> 1000	–
C=CC(=O)N1CCN(c2nc(OC[C@@H]3C[C@H](N4CCC(C(=O)N5CCN(Cc6ccc(-n7c(O)nnc7-c7cc(C(C)C)c(O)cc7O)cc6)CC5)CC4)CN3C)nc3c2CCN(c2cccc4ccccc24)C3)C[C@@H]1CC#N [Compound 246, 2-[(2S)-4-(2-{[(2S,4S)-4-{4-[4-({4-[3-(2,4-dihydroxy-5-isopropylphenyl)-5-hydro-xy-1,2,4-triazol-4-yl]phenyl}methyl)piperazine-1-carbonyl]piperidin-1-yl}-1-methylpyrrolidin-2-yl]methoxy}-7-(naphthalen-1-yl)-5H,6H,8H-pyrido[3,4-d]pyrimidin-4-yl)-1-(prop-2-enoyl)piperazin-2-yl]acetonitrile]	< 100	> 1000	100 to 1000	–
C=CC(=O)N1CCN(c2nc(OC[C@@H]3CC[C@H](CN4CCN(Cc5ccc(-n6c(C(=O)NCC)nnc6-c6cc(C(C)C)c(O)cc6O)cc5)CC4)N3C)nc3c2CCN(c2cccc4cccc(Cl)c24)C3)C[C@@H]1CC#N [Compound 263, 4-{4-[(4-{[(2R,5S)-5-({[7-(8-chloronaphthalen-1-yl)-4-[(3S)-3-(cyanomethyl)-4-(prop-2-enoyl)piperazin-1-yl]-5H,6H,8H-pyrido[3,4-d]pyrimidin-2-yl]oxy}methyl)-1-methylpyrrolidin-2-yl]methyl}piperazin-1-yl)methyl]phenyl}-5-(2,4-dihydroxy-5-isopropylphenyl)-N-ethyl-1,2,4-triazole-3-carboxamide]	< 100	> 1000	< 100	–
C=CC(=O)N1CCN(c2nc(OC[C@@H]3CC[C@H](CN4CCN(C(=O)C5CCN(Cc6ccc(-n7c(C(=O)NCC)nnc7-c7cc(C(C)C)c(O)cc7O)cc6)CC5)CC4)N3C)nc3c2CCN(c2cccc4ccc(F)c(Cl)c24)C3)C[C@@H]1CC#N [Compound 269, 4-(4-{[4-(4-{[(2R,5S)-5-({[7-(8-chloro-7-fluoronaphthalen-1-yl)-4-[(3S)-3-(cyanomethyl)-4-(prop-2-enoyl)piperazin-1-yl]-5H,6H,8H-pyrido[3,4-d]pyrimidin-2-yl]oxy}methyl)-1-methylpyrrolidin-2-yl]methyl}piperazine-1-carbonyl)piperidin-1-yl]methyl}phenyl)-5-(2,4-dihydroxy-5-isopropylphenyl)-N-ethyl-1,2,4-triazole-3-carboxamide]	< 100	> 1000	< 100	–
